Measurements reported in patent US11350582B2, “Plant varieties by application of endocides” (Stephen F. Austin State University, priority 2015, dated 2022).
Where two headings read alike, the source gives them in different places.

Assays:
S. molesta = test: Phytotoxic analysis by pipet application on upper or lower leaf surface; format: in vivo, Salvinia molesta; details: for activity on upper or lower leaf surface applications: 1% solution, 72 hrs; for pest or weed control at 1 %: Salvinia molesta, topical, 72 h
Description: General Experimental Procedure: 4-Hydroxybenzoic and 3,4-dihydroxybenzoic acids and 14 of their analogs were purchased commercially. Each of 16 compounds were prepared as 5 mL experimental solutions with NANOPURE™ water at 1% concentration. A total of 102 healthy and untreated living type III plants of S. molesta (approximately 10 g in fresh weight each) were cultured and tested in 17 plastic containers (23×23 cm, 2.37 L) with six plants in each container in a greenhouse (30° C. during the day time and 20° C. at night). The first container served as the controls without any treatment, the plants in each of the other 16 containers were treated by one of the 16 testing compounds, respectively. The plants in each container were randomly classified into two groups evenly. For each plant in the first group, 10 μL of 1% experimental solution was applied by pipet on the upper surface of each blade of the six pairs of large floating leaves close to the terminal bud. For each plant in the second group, 10 μL of 1% experimental solution was applied by pipet on the lower surface of each blade of the six pairs of large floating leaves close to the terminal bud. The leaf surfaces were examined for damage and analyzed 72 hrs after the treatments.

Salvinia molesta = test: Greenhouse spray test on giant salvinia, living biomass; format: in vivo; details: 10 mL spray on three type III plants per container, day nine
Description: General Experimental Procedure: Observations of giant salvinia growth in a greenhouse were performed under 28 different treatment conditions and control conditions with NANOPURE™ water or 0.5% DYNE-AMIC® (methyl esters of C16-C18 fatty acids, polyalkyleneoxide modified polydimethylsiloxane, and alkylphenol ethoxylate 99%, (Helena, Collierville, Tenn., United States)) (v:v).
Materials—4-hydroxybenzoic acid (>95%, HPLC analysis) and 3,4-dihydroxybenzoic acid (>95%) were isolated from S. molesta matter using the method as described in (Li, Wang et al. 2013). Ethylparaben (>99%) was purchased from a commercial source. Each of 4-hydroxybenzoic acid, 3,4-dihydroxybenzoic acid, and ethylparaben were prepared as 50 mL experimental solutions with NANOPURE™ water at the concentration of 0.5, 1.0, 1.5, and 2.0%, respectively. 0.5, 1.0, 1.5, and 2.0% 4-hydroxybenzoic acid, 3,4-dihydroxybenzoic acid, and ethylparaben with 0.5% surfactant DYNE-AMIC® was also prepared as 50 mL experimental solutions with NANOPURE™ water. Mixtures of 4-hydroxybenzoic acid with 3,4-dihydroxybenzoic acid (2:1, w:w) were prepared as 50 mL experimental solutions with NANOPURE™ water at the total concentration of 0.5, 1.0, and 1.5%, respectively. 3,4-dihydroxybenzoic acid was mixed with ethylparaben (2:1, w:w) and prepared as 50 mL experimental solution with NANOPURE™ water at the total concentration of 0.5, 1.0, and 1.5%, respectively.
Bioassay—For each treatment, a total of nine healthy and untreated living plants of S. molesta (type III, the biomass of three plants weighs approximately 10 g) were cultured in tap water in three plastic containers severing as three replications (14×15 cm, 0.68 L) with three plants each in a greenhouse (30° C. during the day time and 20° C. at night). The three plants in each of the three containers per treatment were sprayed with 10 mL NANOPURE™ water, 0.5% DYNE-AMIC®, or the experimental solution. Plant growth and survival status were documented and photographed in each treatment on day nine after the treatment. Pairwise comparisons for all treatments (including Control) in living biomass were made using Tukey test at alpha=0.05, which was done using SAS (SAS 9.4).

[1] = 10 μL of 1% solution per blade, lower surface, read-out: Inhibition (%) Lower leaf Application
[2] = 10 μL of 1% solution per blade, upper surface, read-out: Inhibition (%) Upper leaf Application
[3] = read-out: Inhibition (%) Lower leaf Application, 10 μL of 1% solution per blade, lower surface
[4] = read-out: Inhibition (%) Upper leaf Application, 10 μL of 1% solution per blade, upper surface

SMILES | pest or weed control at 1 % (S. molesta; [1]) | pest or weed control at 1 % (S. molesta; [2]) | also measured
O=C(O)c1cccnc1 [Nicotinic acid] | 0% | 0% | activity on upper or lower leaf surface applications (S. molesta): did not show any activities
O=C(O)c1cc(O)ccc1O [2,5-Dihydroxybenzoic acid] | 11.1% | 52.8% | –
O=C(O)c1ccccc1O [2-Hydroxybenzoic acid] | 100% | > 85% | –
O=C(O)c1cccc(O)c1 [3-Hydroxybenzoic acid] | 66.7% | 36.1% | –
O=C(O)c1ccc(O)cc1O [2,4-Dihydroxybenzoic acid] | 72.2% | > 85% | –
CCOC(=O)c1ccc(O)cc1 [Ethylparaben, reference compound] | – | – | Living Biomass (mean ± s.d.) (Salvinia molesta; total concentration 0.5%): 18.6 g; Living Biomass (mean ± s.d.) (Salvinia molesta; total concentration 1.0%): 18.7 g; Living Biomass (mean ± s.d.) (Salvinia molesta; total concentration 1.5%): 12.9 g; Living Biomass (mean ± s.d.) (Salvinia molesta; total concentration 2.0%): 13.5 g
O=C(O)c1c(O)cccc1O [2,6-Dihydroxybenzoic acid] | 25% | 44.4% | –
O=C(O)c1ccc(O)c(O)c1O [2,3,4-Trihydroxybenzoic acid] | 11.1% | 44.5% | –
O=C(O)c1ccccc1 [Benzoic acid] | – | – | pest or weed control at 1 % (S. molesta; [3]): 100%; pest or weed control at 1 % (S. molesta; [4]): > 85%
O=C(O)c1cc(O)c(O)c(O)c1 [3,4,5-Trihydroxybenzoic acid] | 0% | 0% | activity on upper or lower leaf surface applications (S. molesta): did not show any activities
O=C(O)c1cc(O)cc(O)c1 [3,5-Dihydroxybenzoic acid] | 0% | 0% | activity on upper or lower leaf surface applications (S. molesta): did not show any activities
O=C(O)COc1ccccc1 [Phenoxyacetic acid] | – | – | pest or weed control at 1 % (S. molesta; [3]): 16.7%; pest or weed control at 1 % (S. molesta; [4]): 77.8%
O=C(O)c1ccncc1 [Isonicotinic acid] | 33.3% | 44.5% | –
O=C(O)c1c(O)cc(O)cc1O [2,4,6-Trihydroxybenzoic acid] | 11.1% | 0% | activity on upper or lower leaf surface applications (S. molesta): did not show any activities
O=C(O)c1cccc(O)c1O [2,3-Dihydroxybenzoic acid] | 100% | > 85% | –
